Results reported in US12049483B2, “Selective and noncovalent inhibitors of oncogenic RAS mutants” (New York University, priority 2020, dated 2024).
Entries after “also recorded” stand apart in the source; their conditions may differ.

Experiments:
HRAS(WT) = biological target: T1, HRAS(WT) (Homo sapiens, UniProt P01112); assay: Yeast display binding titration, HRAS(WT); conditions: GTPγS and GDP bound states
T1 construct: made in house; host or cells: E. coli BL21(DE3) with pBirA
Experimental: (§1) Nucleotide exchange of RAS. Purified RAS proteins used in binding experiment and crystallization were prepared by diluting stock protein (typically containing 20-250 μM RAS) 25 times with 20 mM Tris-Cl buffer pH 7.5 containing 5 mM EDTA, 0.1 mM DTT and 1 mM final concentration of a nucleotide (GDP or GTPγS). Samples were incubated at 30° C. for 30 minutes. MgCl2 was then added to the sample at a final concentration of 20 mM and the solution was further incubated on ice for at least 5 minutes prior to use.
(§2) Monobody development. General procedures for the development of monobodies against purified protein targets have been described previously. After four rounds of phage display library selection using biotinylated KRAS(G12C) at concentrations of 100 nM, 100 nM, 50 nM and 50 nM, the genes encoding monobodies from the enriched phage pool were transferred to a yeast display vector, which was used to construct yeast-display libraries. The yeast display libraries were sorted using a Bio-Rad S3e fluorescence-activated cell sorter or a […] II cell sorter (BD Biosciences). […] Single clones were then screened for selective binding to RAS mutants. The expression of monobodies on the surface of yeast cells were detected using mouse anti-VS and anti-mouse IgG-FITC conjugate. Target binding was detected with neutravidin Dylight650. Yeast cells were analyzed using an iQue flow cytometer (Sartorius). […]

KRAS(G12D) = biological target: T2, KRAS(G12D) (Homo sapiens, UniProt P01116, G12D); assay: Yeast display binding titration, KRAS(G12D); conditions: GTPγS and GDP bound states
T2 construct: KRAS4B residues 1-174 containing G12C, G12V, G12D, G13D, Q61L, WT; made in house; host or cells: E. coli BL21(DE3) with pBirA
Experimental: as §1, §2

KRAS(G13D) = biological target: T3, KRAS(G13D) (Homo sapiens, UniProt P01116, G13D); assay: Yeast display binding titration, KRAS(G13D); conditions: GTPγS and GDP bound states
T3 construct: KRAS4B residues 1-174 containing G12C, G12V, G12D, G13D, Q61L, WT; made in house; host or cells: E. coli BL21(DE3) with pBirA
Experimental: as §1, §2

KRAS(G12V) = biological target: T4, KRAS(G12V) (Homo sapiens, UniProt P01116, G12V); assay: BLI binding to KRAS(G12V); conditions: nucleotide state GTPγS
T4 construct: KRAS4B residues 1-174 containing G12C, G12V, G12D, G13D, Q61L, WT; His6 (N, cleaved yes); Avi-tag (N, cleaved yes); made in house; host or cells: E. coli BL21(DE3)
Text: (§3) Protein expression and purification. All proteins used for monobody development and binding assays, including RAS constructs (KRAS4B residues 1-174 containing G12C, G12V, G12D, G13D, Q61L, WT, NRAS(WT), and HRAS(WT)), Monobodies, and RAF-1 RBD (residues 51-131) were produced with an N-terminal tag containing His6, Avi-tag for biotinylation and a TEV protease recognition site using the pHBT vector. The proteins were produced in E. coli BL21(DE3). To produce biotinylated proteins, E. coli BL21(DE3) with the pBirA plasmid was used as the host and grown in the presence of 50 μM of biotin. Expressed proteins were purified using Ni-Sepharose columns (GE Healthcare) via gravitational flow, followed by dialysis in Tris buffered saline (TBS, 50 mM Tris-Cl pH7.5 containing 150 mM NaCl) for non-RAS proteins. TBS containing 20 mM MgCl2 and 0.5 mM DTT was used for RAS proteins. Samples were further purified using a Superdex 75 size exclusion column on AKTA Pure systems (GE Healthcare). HRAS(WT) and HRAS(G12C) (residues 1-166) used for crystallization was produced as a fusion protein with His6 and yeast SUMO at the N terminus using an in-house vector described previously. […]
(§4) Biolayer interferometry (BLI) analysis. […] BLI signals were analyzed using Octet Data Analysis software (Molecular Devices).

KRAS(G12C) [1] = biological target: T5, KRAS(G12C) (Homo sapiens, UniProt P01116, G12C); assay: BLI binding to KRAS(G12C); set-up: KRAS4B residues 1-174 containing G12C, G12V, G12D, G13D, Q61L, WT; His6 (N, cleaved yes); Avi-tag (N, cleaved yes); made in house; host or cells: E. coli BL21(DE3); conditions: nucleotide state GTPγS
Text: as §3, §4

KRAS(G12C) [2] = biological target: T5, KRAS(G12C); assay: Competitive binding assay of 12VC1 against known interaction partners of RAS (yeast display); set-up: KRAS4B residues 1-174 containing G12C, G12V, G12D, G13D, Q61L, WT; His6 (N, cleaved yes); Avi-tag (N, cleaved yes); made in house; host or cells: E. coli BL21(DE3)
Experimental: After four rounds of phage display library selection using biotinylated KRAS(G12C) at concentrations of 100 nM, 100 nM, 50 nM and 50 nM, the genes encoding monobodies from the enriched phage pool were transferred to a yeast display vector, which was used to construct yeast-display libraries. The yeast display libraries were sorted using a Bio-Rad S3e fluorescence-activated cell sorter or a [sequence] II cell sorter (BD Biosciences). […] The expression of monobodies on the surface of yeast cells were detected using mouse anti-VS and anti-mouse IgG-FITC conjugate. Target binding was detected with neutravidin Dylight650. Yeast cells were analyzed using an iQue flow cytometer (Sartorius).

T1 sequence (P01112 whole entry): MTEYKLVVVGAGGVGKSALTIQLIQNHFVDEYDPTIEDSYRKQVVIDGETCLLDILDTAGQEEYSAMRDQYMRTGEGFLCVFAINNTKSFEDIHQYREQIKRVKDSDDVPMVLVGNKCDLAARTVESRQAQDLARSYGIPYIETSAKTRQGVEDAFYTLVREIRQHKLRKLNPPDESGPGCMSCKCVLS

binding (KRAS(G12D)): no binding | binding (KRAS(G13D)): no binding | koff (KRAS(G12V)): 0.007 s⁻¹ | koff (KRAS(G12C) [1]): 0.0027 s⁻¹ | competition with RAF1-RBD for binding to RAS (KRAS(G12C) [2]): competed
Sequence: VSSVPTKLEVVAATPTSLLISWDAPAVTVFFYVITYGETGHGVGAFQAFKVPGSKSTATISGLKPGVDYTITVYARGYSKQGPYKPSPISINYRT [12VC1]
binding (HRAS(WT)): no binding; also recorded: did not detectably bind
